What was measured:
ER+ PDX lines (BCaPE) = details: four CENMP- PDX lines compared with three CENMP+ lines; p=0.02; cited from earlier work
ZR-75 cells = test: Growth assay (Alamar blue) in ZR-75 cells with knockdown of DDR genes; assay type: cell-based, human; details: siCETN2, siNEIL2 and siERCC1 ZR-75 cells (transient siRNA) vs siScr; media containing full serum
Experimental: ZR75.1 and MCF7 parental cells were from ATCC, 2015 and 2017 respectively, and tested for mycoplasma contamination upon arrival using the Lonza Mycoalert Plus Kit (CAT# LT07-710) as per the manufacturer's instructions, and annually since. Both lines were maintained in RPMI 1640 1X w/ L-glutamine and 1% Penicillin/Streptomycin (Sigma-Aldrich, CAT#P4333—100 mL). Cell lines used for experiments were <20 passages. Transient transfections with esiRNA (Sigma-Aldrich) towards human NEIL2 (CAT#EHU158461), CETN2 (CAT#EHU137031), ERCC1 (CAT#EHU156971), RAD23B (CAT#EHU145881) and POLM (CAT#SASI_Hs02_003344553), or scrambled control used at 50 nmoles/L each were delivered using Polypluys jetPRIME® transfection reagent (CAT#114-07) as per the manufacturer's instructions. Cells were plated for experiments 48 hrs after transfection. Stable selection with puromycin after infection with lentivirus harboring RNAi oligos (ABM) against human NEIL2 (CAT#i014980a), CETN2 (CAT#i004479a), and ERCC1 (CAT#i007023a) or scrambled control (CAT#i000238c) was conducted using manufacturer's protocol. Growth assays were repeated independently in triplicate as previously reported (50) using Alamar blue to detect cell viability. Final readings were between 4-6 days after initial drug treatment and fold change plotted for analysis. […]

MCF7 cells [1] = test: Ki67 immunofluorescence in MCF7 cells before and after fulvestrant treatment; assay type: cell-based, human; details: siCETN2, siNEIL2, siERCC1 MCF7 cells vs siScr control; 100 nM fulvestrant, 48 hours
Experimental: (§1) FIGS. 17A-17E. Dysregulation of CETN2, NEIL2 and ERCC1 expression in ER+ breast cancer cells alters regulation of G1/S transition of the cell cycle. FIG. 17A & FIG. 17D) Histograms representing percentage of siScr, siCETN2, siNEIL2, siERCC1 and siMLH1 MCF7 cells that are Ki67 (FIG. 17A) and PCNA (FIG. 17D) positive after 48 hours of treatment with 100 nM of fulvestrant. Columns represent the mean and error bars the standard deviation. Student's t-test determined p-values. FIG. 17B-FIG. 17C) Boxplots indicating levels of CDK4 mRNA and PCNA protein level in CETN2, ERCC1, NEIL2, PRKDC proficient (CEN+PRKDCwt) and deficient (CEN-PRKDCmut) ER+ breast tumors based on values from microarray and RPPA data from TCGA. Wilcoxon Rank Sum test determined p-values. FIG. 17E) Histograms depicting percent growth inhibition in fulvestrant and abemaciclib (CDK4/6i)-treated MCF7 cells stably selected for RNAi-mediated knockdown of control, CETN2, ERCC1 or NEIL2, relative to vehicle treated cells. […] Student's t-test determined p-values.
(§2) RNA from cell lines was extracted using the Qiagen RNeasy Mini Kit (CAT#74106) and converted to cDNA using Bio-Rad Reverse Transcriptase iScript (CAT#TX1708891BAY), both following manufacturers' instructions. cDNA was quantified by qPCR using Bio-Rad SsoAdvanced Universal SYBR Green supermix (CAT#17525272) at the manufacturers specifications. […]

MCF7 cells [2] = test: FACS analysis for PCNA in MCF7 cells after fulvestrant treatment; assay type: cell-based, human; details: MCF7 cells with stable knockdown of CETN2, NEIL2, ERCC1 and MLH1 relative to control cells; 100 nM fulvestrant
Experimental: as §1, §2

MCF7 cells [3] = test: Growth assay (Alamar blue) in MCF7 cells with knockdown of DDR genes; assay type: cell-based, human; details: for sensitivity (growth inhibition relative to vehicle treated cells): 100 nM fulvestrant, 1 μM Palbociclib
Experimental: ZR75.1 and MCF7 parental cells were from ATCC, 2015 and 2017 respectively, and tested for mycoplasma contamination upon arrival using the Lonza Mycoalert Plus Kit (CAT# LT07-710) as per the manufacturer's instructions, and annually since. Both lines were maintained in RPMI 1640 1X w/ L-glutamine and 1% Penicillin/Streptomycin (Sigma-Aldrich, CAT#P4333—100 mL). Cell lines used for experiments were <20 passages. Transient transfections with esiRNA (Sigma-Aldrich) towards human NEIL2 (CAT#EHU158461), CETN2 (CAT#EHU137031), ERCC1 (CAT#EHU156971), RAD23B (CAT#EHU145881) and POLM (CAT#SASI_Hs02_003344553), or scrambled control used at 50 nmoles/L each were delivered using Polypluys jetPRIME® transfection reagent (CAT#114-07) as per the manufacturer's instructions. Cells were plated for experiments 48 hrs after transfection. Stable selection with puromycin after infection with lentivirus harboring RNAi oligos (ABM) against human NEIL2 (CAT#i014980a), CETN2 (CAT#i004479a), and ERCC1 (CAT#i007023a) or scrambled control (CAT#i000238c) was conducted using manufacturer's protocol. Growth assays were repeated independently in triplicate as previously reported (50) using Alamar blue to detect cell viability. Final readings were between 4-6 days after initial drug treatment and fold change plotted for analysis. Fulvestrant(Fisher Scientific CAT#506242), 4-OHT(Sigma-Aldrich CAT#H7904), Palbociclib (ThermoFisher CAT#508548) and Abemaciclib (ThermoFisher CAT#NC0577560), dissolved in DMSO, and β-estradiol (Sigma-Aldrich CAT#E2758-1G), dissolved in water, at 10 mmoles/L were stored long term at −80 C with working stocks at −20 C. Cells were treated 24 hours after plating with fresh drug added every 48 hrs until the end of the experiment. Estradiol addition experiments were conducted in phenol red-free DMEM with 10% charcoal stripped serum.

## CC(C)(C#N)c1cc(Cn2cncn2)cc(C(C)(C)C#N)c1 [anastrozole]
ER+ PDX lines (BCaPE)
  tumor viability after treatment (AUC): significantly higher tumor viability

## C[C@]12CC[C@@H]3c4ccc(O)cc4C[C@@H](CCCCCCCCC[S+]([O-])CCCC(F)(F)C(F)(F)F)[C@H]3[C@@H]1CC[C@@H]2O (stereo partly drawn) [fulvestrant, Fulvestrant]
ZR-75 cells
  growth inhibition in response to treatment: significant lack of growth inhibition
MCF7 cells [1]
  Ki67 inhibition in response to treatment: profound lack of Ki67 inhibition
MCF7 cells [2]
  PCNA positivity after treatment: Increased PCNA positivity
MCF7 cells [3]; MCF7 cells stably selected with lentiviral RNAi against CETN2, NEIL2, ERCC1
  growth phenotype under treatment: Fulvestrant-independent
MCF7 cells [3]; MCF7 cells with siRNA knockdown of negative control genes RAD23B and POLM
  growth response to treatment: did not alter growth response
MCF7 cells [3]; MCF7 cells with stable knockdown of CETN2, NEIL2 or ERCC1
  sensitivity (growth inhibition relative to vehicle treated cells): resistance
MCF7 cells [3]; control MCF7 cells (scrambled RNAi)
  sensitivity (growth inhibition relative to vehicle treated cells): comparable sensitivity
MCF7 cells [3]; siCETN2, siNEIL2 and siERCC1 MCF7 cells (transient siRNA) vs siScr, media containing full serum
  growth inhibition in response to treatment: significant lack of growth inhibition

Source: patent US20220249476A1, “MutL LOSS PREDICTS SENSITIVITY TO CDK4/6 INHIBITORS IN CANCER” (Baylor College of Medicine, priority 2018, published 2022)
